The source of these data is US11236078B2, “Heterocyclic inhibitors of the sodium channel” (priority 2014, dated 2022).

Type in all cases: cell-based
Assay [1] concerns the target T1, human Nav1.7 (hNav1.7) (Homo sapiens, UniProt Q15858).
T1 construct: expressed in transfected cells
Kind of assay: hNav1.7 slow inactivation block, manual patchclamp. Particulars: HEK 293F cells stably expressing hNav1.7, slow inactivation induced in approximately 50% of channels. From the text: (§1) The generation of HEK 293F cell lines stably expressing human Nav1.7 (h Nav1.7), human Nav1.5 (hNav1.5) and rat Nav1.2 (r Nav1.2) was achieved by subcloning SCN9A, SCN5A, and SCN2A genes into inducible expression vectors followed by transfection into target cells using standard techniques. In the case of h Nav1.7, an expression vector encoding the human Navβ1 auxiliary subunit gene, SCN1B, was co-transfected with the expression vector bearing the SCN9A gene. Clones were selected using appropriate selection agents (0.3 mg/mL Zeocin and 0.8 mg/mL Geneticin) and maintained in Dulbecco's Modified Eagle medium, 10% fetal bovine serum, 1% non-essential amino acids to ˜80% confluence at 37° C. in a humidified incubator with 95% atmosphere and 5% CO2.
(§2) On the day of each experiment, cells that were grown to 80% confluence in a T75 flask were harvested for use on PatchXpress (Molecular Devices, CA, USA). Following a recovery period at 37° C. in a humidified incubator with 95% atmosphere and 5% CO2 in Dulbecco's Modified Eagle Medium, the media was replaced with an external recording solution containing (in mM): 90 TEACl, 50 NaCl, 1.8 CaCl2, 1 MgCl2, 10 HEPES, 10 glucose, adjusted to pH 7.4 with TEAOH and 300 mOsm with sucrose. The internal recording solution contained (in mM): 129 CsF, 2 MgCl2, 11 EGTA, 10 HEPES, 6 NaCl, 3 Na2ATP adjusted to pH 7.2 with CsOH and 280 mOsm with sucrose. The automated liquid handling facility of PatchXpress dispensed cells and added compound. Modulation of Nav1.7 channels by compounds was assessed by promoting the channels into the inactivated state using a conditioning voltage pulse of variable amplitude, followed by a brief hyperpolarizing pulse with a subsequent depolarized voltage step to measure the current amplitude in the presence and absence of compound.
(§3) In some cases, the potency of compounds was measured using either the Patchliner automated patch clamp platform (Nanion) or manual patch clamp techniques. Both approaches allowed the compounds to be characterized based upon the ability of a compound to modulate use- and/or state-dependence across human Nav1.7 (hNav1.7), human Nav1.5 (hNav1.5) and rat Nav1.2 (rNav1.2). The potency data is tabulated in Table 2 and is represented by six data fields. Three of the six fields represent potency data measured with the Patchliner automated platform under varying use- and state-dependent electrophysiology protocols similar to the PatchXpress protocols detailed above. For example, the second data column describes the potency of compounds in their ability to block 50% of Nav1.7 channels when the channel is repetitively activated by depolarizing voltage potentials to induce slow inactivation in approximately 50% of channels (Table 2: h Nav1.7: IC50 Slow Inactivation Block, Automated Patchclamp). The next three data fields describe the data generated from manual patchclamp electrophysiology measurements using similar methods to those employed for automated patchclamp studies.
A general note: Patch clamp records ionic current or voltage across a cell membrane.

Assay [2] has as its target T1, human Nav1.7 (hNav1.7). The experiment in a line: hNav1.7 slow inactivation block, automated patchclamp. Particulars: HEK 293F cells stably expressing hNav1.7, slow inactivation induced in approximately 50% of channels.
Source text: as §1, §2, §3

Assay [3] has as its target T2, rat Nav1.2 (rNav1.2) (Rattus norvegicus, UniProt P04775).
T2 construct: expressed in transfected cells
The experiment in a line: rNav1.2 slow inactivation block, manual patchclamp. Conditions: HEK 293F cells stably expressing rNav1.2.
Source text: as §1, §2, §3

Assay [4] deals with T2, rat Nav1.2 (rNav1.2). Kind of assay: rNav1.2 slow inactivation block, automated patchclamp. Particulars: HEK 293F cells stably expressing rNav1.2.
Source text: as §1, §2, §3

T2 sequence (P04775 whole entry): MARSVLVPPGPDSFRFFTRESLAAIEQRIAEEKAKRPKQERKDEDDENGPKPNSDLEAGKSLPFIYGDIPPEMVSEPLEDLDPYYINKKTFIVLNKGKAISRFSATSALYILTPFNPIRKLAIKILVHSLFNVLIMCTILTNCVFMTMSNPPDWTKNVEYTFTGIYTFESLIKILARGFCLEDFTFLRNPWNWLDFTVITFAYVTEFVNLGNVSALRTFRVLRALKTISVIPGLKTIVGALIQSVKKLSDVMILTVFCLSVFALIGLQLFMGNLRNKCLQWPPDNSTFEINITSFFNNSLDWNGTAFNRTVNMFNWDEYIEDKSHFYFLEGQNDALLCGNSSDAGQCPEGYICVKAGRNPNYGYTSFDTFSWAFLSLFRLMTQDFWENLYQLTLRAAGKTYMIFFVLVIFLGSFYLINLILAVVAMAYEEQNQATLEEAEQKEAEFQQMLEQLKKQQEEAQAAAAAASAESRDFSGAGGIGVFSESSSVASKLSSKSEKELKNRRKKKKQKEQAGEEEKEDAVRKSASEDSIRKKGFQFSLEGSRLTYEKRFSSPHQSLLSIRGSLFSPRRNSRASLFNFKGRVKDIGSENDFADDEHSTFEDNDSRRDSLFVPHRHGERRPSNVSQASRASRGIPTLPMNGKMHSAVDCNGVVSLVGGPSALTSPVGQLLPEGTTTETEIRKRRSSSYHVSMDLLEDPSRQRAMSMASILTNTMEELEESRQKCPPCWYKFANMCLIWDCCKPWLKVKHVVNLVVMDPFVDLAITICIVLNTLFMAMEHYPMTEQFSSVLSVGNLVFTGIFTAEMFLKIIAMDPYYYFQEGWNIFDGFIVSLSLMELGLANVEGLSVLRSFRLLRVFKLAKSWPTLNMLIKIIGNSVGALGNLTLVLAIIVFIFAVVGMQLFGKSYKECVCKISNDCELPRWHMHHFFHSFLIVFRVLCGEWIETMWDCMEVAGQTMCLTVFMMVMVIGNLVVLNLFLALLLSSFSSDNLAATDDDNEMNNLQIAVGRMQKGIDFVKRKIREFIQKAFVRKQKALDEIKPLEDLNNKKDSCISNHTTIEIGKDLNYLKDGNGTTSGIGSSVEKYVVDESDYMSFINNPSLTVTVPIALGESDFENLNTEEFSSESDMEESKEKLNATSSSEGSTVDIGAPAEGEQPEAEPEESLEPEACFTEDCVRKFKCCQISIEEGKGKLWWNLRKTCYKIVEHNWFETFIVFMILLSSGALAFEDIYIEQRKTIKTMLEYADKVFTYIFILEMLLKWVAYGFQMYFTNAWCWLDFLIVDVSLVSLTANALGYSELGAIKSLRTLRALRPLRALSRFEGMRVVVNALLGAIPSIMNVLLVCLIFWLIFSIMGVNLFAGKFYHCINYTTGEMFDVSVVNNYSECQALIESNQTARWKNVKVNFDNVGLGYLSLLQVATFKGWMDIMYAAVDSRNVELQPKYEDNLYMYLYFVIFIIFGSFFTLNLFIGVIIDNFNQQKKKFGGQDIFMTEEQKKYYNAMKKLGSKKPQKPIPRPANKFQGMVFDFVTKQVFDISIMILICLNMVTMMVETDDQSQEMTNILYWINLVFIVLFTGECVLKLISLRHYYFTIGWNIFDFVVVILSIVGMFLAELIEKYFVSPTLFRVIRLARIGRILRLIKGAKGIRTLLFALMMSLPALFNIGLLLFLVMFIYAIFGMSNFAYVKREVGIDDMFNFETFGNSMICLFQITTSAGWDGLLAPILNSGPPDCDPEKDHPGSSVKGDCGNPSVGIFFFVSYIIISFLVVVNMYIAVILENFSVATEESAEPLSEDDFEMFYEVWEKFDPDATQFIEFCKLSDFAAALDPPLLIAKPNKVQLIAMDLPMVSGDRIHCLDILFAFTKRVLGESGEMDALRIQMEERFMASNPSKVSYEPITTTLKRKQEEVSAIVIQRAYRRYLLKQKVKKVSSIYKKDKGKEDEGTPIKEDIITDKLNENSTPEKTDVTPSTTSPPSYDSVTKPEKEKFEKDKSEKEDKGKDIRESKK
T1 sequence (Q15858 whole entry): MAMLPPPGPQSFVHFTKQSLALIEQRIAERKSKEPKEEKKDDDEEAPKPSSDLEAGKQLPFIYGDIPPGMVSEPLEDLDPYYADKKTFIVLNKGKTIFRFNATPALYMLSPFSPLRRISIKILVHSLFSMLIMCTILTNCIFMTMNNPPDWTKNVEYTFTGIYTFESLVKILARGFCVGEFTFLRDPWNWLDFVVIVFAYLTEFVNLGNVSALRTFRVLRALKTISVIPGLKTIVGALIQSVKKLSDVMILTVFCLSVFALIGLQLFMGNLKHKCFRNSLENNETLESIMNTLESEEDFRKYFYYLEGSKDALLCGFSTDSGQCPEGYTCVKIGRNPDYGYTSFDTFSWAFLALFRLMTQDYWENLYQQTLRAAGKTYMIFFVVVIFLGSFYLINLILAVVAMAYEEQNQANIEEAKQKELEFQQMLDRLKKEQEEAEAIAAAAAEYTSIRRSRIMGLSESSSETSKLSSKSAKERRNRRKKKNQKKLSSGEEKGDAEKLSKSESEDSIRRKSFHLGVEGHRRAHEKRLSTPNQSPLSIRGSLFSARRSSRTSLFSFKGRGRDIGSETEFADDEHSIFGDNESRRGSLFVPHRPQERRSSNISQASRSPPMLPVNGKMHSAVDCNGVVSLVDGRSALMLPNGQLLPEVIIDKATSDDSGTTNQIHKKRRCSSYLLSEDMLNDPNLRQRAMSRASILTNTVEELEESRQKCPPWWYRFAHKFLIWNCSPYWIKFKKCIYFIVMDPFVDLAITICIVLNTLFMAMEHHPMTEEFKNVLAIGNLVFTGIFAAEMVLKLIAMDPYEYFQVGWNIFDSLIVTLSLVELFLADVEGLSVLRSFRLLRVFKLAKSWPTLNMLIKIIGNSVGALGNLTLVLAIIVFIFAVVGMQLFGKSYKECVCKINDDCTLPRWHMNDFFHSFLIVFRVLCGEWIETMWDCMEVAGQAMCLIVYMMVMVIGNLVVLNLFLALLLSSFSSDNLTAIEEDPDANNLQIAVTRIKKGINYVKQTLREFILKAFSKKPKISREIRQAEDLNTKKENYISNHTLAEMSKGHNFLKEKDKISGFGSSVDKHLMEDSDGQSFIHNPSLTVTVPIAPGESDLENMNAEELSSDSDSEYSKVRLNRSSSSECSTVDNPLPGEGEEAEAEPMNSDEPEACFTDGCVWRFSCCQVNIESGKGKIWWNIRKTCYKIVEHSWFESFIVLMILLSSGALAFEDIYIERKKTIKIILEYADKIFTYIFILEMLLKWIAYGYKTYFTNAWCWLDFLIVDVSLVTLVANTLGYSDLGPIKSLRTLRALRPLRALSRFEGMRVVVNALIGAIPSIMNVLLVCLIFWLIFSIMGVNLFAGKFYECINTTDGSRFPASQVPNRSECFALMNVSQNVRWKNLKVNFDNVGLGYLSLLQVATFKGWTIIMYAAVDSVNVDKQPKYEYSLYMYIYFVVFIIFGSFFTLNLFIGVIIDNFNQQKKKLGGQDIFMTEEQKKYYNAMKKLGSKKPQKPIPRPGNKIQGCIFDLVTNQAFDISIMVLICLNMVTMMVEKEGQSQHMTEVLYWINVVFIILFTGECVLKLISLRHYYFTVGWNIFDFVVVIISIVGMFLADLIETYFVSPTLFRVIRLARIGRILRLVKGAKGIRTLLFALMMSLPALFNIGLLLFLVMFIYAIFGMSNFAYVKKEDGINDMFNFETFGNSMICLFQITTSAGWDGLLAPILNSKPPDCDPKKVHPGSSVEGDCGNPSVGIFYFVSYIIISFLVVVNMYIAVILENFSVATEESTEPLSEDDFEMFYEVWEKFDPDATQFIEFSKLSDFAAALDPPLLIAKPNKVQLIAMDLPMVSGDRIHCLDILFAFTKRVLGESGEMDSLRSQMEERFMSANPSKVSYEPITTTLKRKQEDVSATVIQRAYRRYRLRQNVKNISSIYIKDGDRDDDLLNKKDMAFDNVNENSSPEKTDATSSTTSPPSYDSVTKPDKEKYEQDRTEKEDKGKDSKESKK
T1 sequence (Q07699 19-218 partner): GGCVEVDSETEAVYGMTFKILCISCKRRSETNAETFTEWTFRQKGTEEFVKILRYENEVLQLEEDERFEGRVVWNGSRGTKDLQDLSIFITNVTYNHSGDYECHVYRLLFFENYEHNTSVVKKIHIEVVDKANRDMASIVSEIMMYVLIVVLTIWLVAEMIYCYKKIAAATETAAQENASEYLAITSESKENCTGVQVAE

For orientation: IC50 means the point on the concentration scale where inhibition reaches its midpoint. The low end stands for greater potency in that assay, the high end for weaker potency in that assay. With `O=C(NCc1cc(F)c(Oc2ccccc2)cc1F)[C@@H]1CCCN1` [Compound 3, (2S)-N-[(2,5-difluoro-4-phenoxyphenyl)methyl]pyrrolidine-2-carboxamide], the IC50 in assay [1] was 1340 nM; in assay [2], 5780 nM; in assay [3], 1890 nM.
Turning to `O=S(=O)(Nc1ncns1)c1ccc(Oc2cc(C(F)(F)F)cc(C(F)(F)F)c2)cc1` [Compound 6, 4-[3,5-bis(trifluoromethyl)phenoxy]-N-(1,2,4-thiadiazol-5-yl)benzene-1-sulfonamide], the half-maximal inhibitory concentration (IC50) in assay [1] was approximately 39000 nM; in assay [3] it was more than 10000 nM.
Turning to `O=S(=O)(Nc1nncs1)c1ccc(Oc2cc(C(F)(F)F)cc(C(F)(F)F)c2)cc1` [Compound 7, 4-[3,5-bis(trifluoromethyl)phenoxy]-N-(1,3,4-thiadiazol-2-yl)benzene-1-sulfonamide], the IC50 in assay [2] is more than 32000 nM.
In assay [2], `O=S(=O)(Nc1nncs1)c1cc(F)c(Oc2cc(C(F)(F)F)cc(C(F)(F)F)c2)cc1F` [Compound 8, 4-[3,5-bis(trifluoromethyl)phenoxy]-2,5-difluoro-N-(1,3,4-thiadiazol-2-yl)benzene-1-sulfonamide] returned an IC50 of more than 32000 nM.
On the same count and under the same terms, then `O=S(=O)(Nc1nccs1)c1ccc(Oc2cc(C(F)(F)F)cc(C(F)(F)F)c2)cc1` [Compound 9, 4-[3,5-bis(trifluoromethyl)phenoxy]-N-(1,3-thiazol-2-yl)benzene-1-sulfonamide], with approximately 29500 nM.
As to `N#Cc1cc(S(=O)(=O)Nc2nncs2)ccc1Oc1cc(C(F)(F)F)cc(C(F)(F)F)c1` [Compound 10, 4-[3,5-bis(trifluoromethyl)phenoxy]-3-cyano-N-(1,3,4-thiadiazol-2-yl)benzene-1-sulfonamide], the IC50 in assay [1] was more than 10000 nM; in assay [2], more than 32000 nM; in assay [3] it was more than 10000 nM.
Regarding `O=S(=O)(Nc1ncns1)c1ccc(Oc2cc(C(F)(F)F)cc(C(F)(F)F)c2)c(F)c1` [Compound 11, 4-[3,5-bis(trifluoromethyl)phenoxy]-3-fluoro-N-(1,2,4-thiadiazol-5-yl)benzene-1-sulfonamide], the IC50 in assay [1] is more than 3200 nM; in assay [2] it was more than 32000 nM; in assay [3], more than 10000 nM.
For the molecule `O=C(Nc1ncns1)c1cc(F)c(Oc2cc(C(F)(F)F)cc(C(F)(F)F)c2)cc1F` [Compound 12, 4-[3,5-bis(trifluoromethyl)phenoxy]-2,5-difluoro-N-(1,2,4-thiadiazol-5-yl)benzamide], the IC50 in assay [1] was approximately 5590 nM; in assay [2], more than 32000 nM; in assay [3], more than 3200 nM.
With `CS(=O)(=O)NC(=O)c1cc(F)c(Oc2cc(C(F)(F)F)cc(C(F)(F)F)c2)cc1F` [Compound 13, 4-[3,5-bis(trifluoromethyl)phenoxy]-2,5-difluoro-N-methanesulfonylbenzamide], the IC50 in assay [1] is approximately 10300 nM; in assay [2], 19200 nM; in assay [3] it was more than 10000 nM.
Turning to `N#Cc1cc(S(=O)(=O)Nc2ncns2)ccc1Oc1cc(C(F)(F)F)cc(C(F)(F)F)c1` [Compound 14, 4-[3,5-bis(trifluoromethyl)phenoxy]-3-cyano-N-(1,2,4-thiadiazol-5-yl)benzene-1-sulfonamide], the IC50 in assay [1] was 4940 nM; in assay [2], approximately 49000 nM; in assay [3], more than 10000 nM; in assay [4] it was more than 32000 nM.
On to `O=C(Nc1nncs1)c1cc(F)c(Oc2cc(C(F)(F)F)cc(C(F)(F)F)c2)cc1F` [Compound 15, 4-[3,5-bis(trifluoromethyl)phenoxy]-2,5-difluoro-N-(1,3,4-thiadiazol-2-yl)benzamide], for which the half-inhibitory concentration (IC50) was 4960 nM in assay [1], more than 32000 nM in assay [2] and 4320 nM in assay [3].
Regarding `O=S(=O)(Nc1ncns1)c1ccc(Oc2cc(C(F)(F)F)cc(C(F)(F)F)c2)c(Cl)c1` [Compound 16, 4-[3,5-bis(trifluoromethyl)phenoxy]-3-chloro-N-(1,2,4-thiadiazol-5-yl)benzene-1-sulfonamide], the values for the IC50 in assay [2], in assay [3] and in assay [4] were 21100 nM, more than 10000 nM and more than 32000 nM, respectively.
As to `O=S(=O)(Nc1ccncn1)c1cc(F)c(Oc2cc(C(F)(F)F)cc(C(F)(F)F)c2)cc1F` [Compound 18, 4-[3,5-bis(trifluoromethyl)phenoxy]-2,5-difluoro-N-(pyrimidin-4-yl)benzene-1-sulfonamide], the IC50 in assay [1] was approximately 9760 nM; in assay [2], more than 32000 nM; in assay [4] it was more than 32000 nM.
On to `O=C(Cc1cc(F)c(Oc2cc(C(F)(F)F)cc(C(F)(F)F)c2)cc1F)Nc1ncns1` [Compound 22, 2-{4-[3,5-bis(trifluoromethyl)phenoxy]-2,5-difluorophenyl}-N-(1,2,4-thiadiazol-5-yl)acetamide], for which the IC50 was more than 3200 nM in assay [1], more than 32000 nM in assay [2] and more than 32000 nM in assay [4].
Regarding `CNC(=O)c1cc(Oc2cc(F)c(S(=O)(=O)Nc3ncns3)cc2F)cc(C(F)(F)F)c1` [Compound 25, 3-{2,5-difluoro-4-[(1,2,4-thiadiazol-5-yl)sulfamoyl]phenoxy}-N-methyl-5-(trifluoromethyl)benzamide], the IC50 is approximately 19200 nM in assay [1], approximately 41800 nM in assay [2] and more than 32000 nM in assay [4].
On to `CCNC(=O)c1cc(Oc2cc(F)c(S(=O)(=O)Nc3ncns3)cc2F)cc(C(F)(F)F)c1` [Compound 35, 3-{2,5-difluoro-4-[(1,2,4-thiadiazol-5-yl)sulfamoyl]phenoxy}-N-ethyl-5 (trifluoromethyl)benzamide], for which the IC50 in assay [1] was approximately 16200 nM; in assay [2], more than 32000 nM.
As to `O=C(c1cc(Oc2cc(F)c(S(=O)(=O)Nc3ncns3)cc2F)cc(C(F)(F)F)c1)N1CCCC1` [Compound 39, 2,5-difluoro-4-{3-[(pyrrolidin-1-yl)carbonyl]-5-(trifluoromethyl)phenoxy}-N-(1,2,4-thiadiazol-5-yl)benzene-1-sulfonamide], the IC50 was approximately 6930 nM in assay [1] and approximately 21700 nM in assay [2].
The corresponding values for `COCc1nsc(NS(=O)(=O)c2cc(F)c(Oc3cc(OC)cc(C(F)(F)F)c3)cc2F)n1` [Compound 44, 2,5-difluoro-4-[3-methoxy-5-(trifluoromethyl)phenoxy]-N-[3-(methoxymethyl)-1,2,4-thiadiazol-5-yl]benzene-1-sulfonamide] are more than 10000 nM and more than 32000 nM.
For `O=C(NCc1cc(-c2cc(C(F)(F)F)cc(C(F)(F)F)c2)cc(C(F)(F)F)c1)[C@@H]1C[C@H](F)CN1` [Compound 54, (2S,4S)-4-fluoro-N-((3′,5,5′-tris(trifluoromethyl)-[1,1′-biphenyl]-3-yl)methyl)pyrrolidine-2-carboxamide], the IC50 in assay [1] was 741 nM; in assay [2] it was 5130 nM; in assay [3], 744 nM.
`O=C(NCc1cccc(-c2cc(C(F)(F)F)cc(C(F)(F)F)c2)c1)C1CC[C@H](O)C1` (stereo partly drawn) [Example 63, (3S)-N-({3-[3,5-bis(trifluoromethyl)phenyl]phenyl}methyl)-3-hydroxycyclopentane-1-carboxamide]: the IC50 stood at 2680 nM in assay [1] and 2370 nM in assay [3].
On the same counts, the results for `O=C(NCc1cccc(-c2cc(C(F)(F)F)cc(C(F)(F)F)c2)c1)C1CC[C@@H](O)C1` (stereo partly drawn) [Example 64, (3R)-N-({3-[3,5-bis(trifluoromethyl)phenyl]phenyl}methyl)-3-hydroxycyclopentane-1-carboxamide] are 1570 nM and 961 nM.
The corresponding values for `O=C(NCc1cccc(-c2cc(C(F)(F)F)cc(C(F)(F)F)c2)c1)C1CC[C@@H](F)C1` (stereo partly drawn) [Example 65, (3R)-N-({3-[3,5-bis(trifluoromethyl)phenyl]phenyl}methyl)-3-fluorocyclopentane-1-carboxamide] are 477 nM and 351 nM.
